ChEMBL document CHEMBL4196115 (ACS Med Chem Lett, 2018)
Calls of active or inactive are those of the source. The calls are words filed in the database; no cut-off is given here.

Columns and labels:
[1] = molecular target: T1, Muscarinic acetylcholine receptor M2 (Homo sapiens) (UniProt P08172); test: Positive allosteric modulation of human muscarinic acetylcholine receptor M2 expressed in CHO cells; type: functional, cell-based
T1 sequence (whole entry): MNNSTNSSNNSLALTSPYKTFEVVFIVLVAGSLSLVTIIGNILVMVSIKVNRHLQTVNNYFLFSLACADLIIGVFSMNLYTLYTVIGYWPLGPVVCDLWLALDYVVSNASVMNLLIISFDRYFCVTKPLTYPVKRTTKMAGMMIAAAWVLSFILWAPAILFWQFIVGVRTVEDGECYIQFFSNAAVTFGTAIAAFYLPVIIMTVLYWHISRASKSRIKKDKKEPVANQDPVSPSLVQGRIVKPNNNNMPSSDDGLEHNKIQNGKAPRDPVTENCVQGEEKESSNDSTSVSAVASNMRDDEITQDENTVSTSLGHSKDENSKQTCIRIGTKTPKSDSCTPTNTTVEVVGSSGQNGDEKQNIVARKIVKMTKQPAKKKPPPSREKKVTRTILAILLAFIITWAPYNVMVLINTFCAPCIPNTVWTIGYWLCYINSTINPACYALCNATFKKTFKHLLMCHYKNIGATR

[2] = molecular target: Muscarinic acetylcholine receptor M3 (Homo sapiens) (UniProt P20309); test: Positive allosteric modulation of human muscarinic acetylcholine receptor M3 expressed in CHO cells; type: functional, cell-based
Sequence of Muscarinic acetylcholine receptor M3 (Homo sapiens) (P20309 whole entry, looked up): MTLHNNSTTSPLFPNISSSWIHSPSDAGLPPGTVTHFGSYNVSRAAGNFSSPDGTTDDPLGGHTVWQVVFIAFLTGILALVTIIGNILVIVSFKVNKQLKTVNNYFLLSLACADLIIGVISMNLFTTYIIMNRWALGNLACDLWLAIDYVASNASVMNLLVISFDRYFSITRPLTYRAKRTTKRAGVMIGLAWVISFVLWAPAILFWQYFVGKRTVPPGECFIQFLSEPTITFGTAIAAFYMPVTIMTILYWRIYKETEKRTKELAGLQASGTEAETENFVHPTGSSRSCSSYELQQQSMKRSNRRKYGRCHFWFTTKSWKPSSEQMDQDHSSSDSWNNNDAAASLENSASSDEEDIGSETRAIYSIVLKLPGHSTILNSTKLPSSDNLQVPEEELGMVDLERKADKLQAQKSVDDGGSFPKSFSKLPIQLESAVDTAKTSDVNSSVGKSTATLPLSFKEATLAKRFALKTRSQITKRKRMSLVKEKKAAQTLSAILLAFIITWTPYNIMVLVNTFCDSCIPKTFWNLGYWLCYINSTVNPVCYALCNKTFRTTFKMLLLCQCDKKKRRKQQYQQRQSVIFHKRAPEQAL

[3] = molecular target: T2, Muscarinic acetylcholine receptor M4 (Homo sapiens) (UniProt P08173); test: Positive allosteric modulation of human muscarinic acetylcholine receptor M4 expressed in CHO cells; type: functional, cell-based
T2 sequence (whole entry): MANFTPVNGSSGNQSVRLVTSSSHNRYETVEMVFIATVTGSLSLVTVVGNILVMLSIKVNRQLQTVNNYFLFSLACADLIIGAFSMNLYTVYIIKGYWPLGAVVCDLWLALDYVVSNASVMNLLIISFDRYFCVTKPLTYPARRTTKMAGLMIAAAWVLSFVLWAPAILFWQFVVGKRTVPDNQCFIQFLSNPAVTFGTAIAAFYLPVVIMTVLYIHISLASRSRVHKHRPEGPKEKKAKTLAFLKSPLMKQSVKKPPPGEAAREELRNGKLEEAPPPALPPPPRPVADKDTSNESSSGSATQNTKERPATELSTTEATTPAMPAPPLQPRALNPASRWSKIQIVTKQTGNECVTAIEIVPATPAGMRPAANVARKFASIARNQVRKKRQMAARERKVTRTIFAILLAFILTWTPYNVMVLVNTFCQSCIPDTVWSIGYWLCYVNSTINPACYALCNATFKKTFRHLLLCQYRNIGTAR

[4] = molecular target: T1, Muscarinic acetylcholine receptor M2 (Homo sapiens); test: Agonist activity at human muscarinic acetylcholine receptor M2 expressed in CHO cells; type: functional, cell-based
[5] = molecular target: Muscarinic acetylcholine receptor M3 (Homo sapiens) (UniProt P20309); test: Agonist activity at human muscarinic acetylcholine receptor M3 expressed in CHO cells; type: functional, cell-based
[6] = molecular target: T3, Muscarinic acetylcholine receptor M5 (Homo sapiens) (UniProt P08912); test: Agonist activity at human muscarinic acetylcholine receptor M5 expressed in CHO cells; type: functional, cell-based
T3 sequence (whole entry): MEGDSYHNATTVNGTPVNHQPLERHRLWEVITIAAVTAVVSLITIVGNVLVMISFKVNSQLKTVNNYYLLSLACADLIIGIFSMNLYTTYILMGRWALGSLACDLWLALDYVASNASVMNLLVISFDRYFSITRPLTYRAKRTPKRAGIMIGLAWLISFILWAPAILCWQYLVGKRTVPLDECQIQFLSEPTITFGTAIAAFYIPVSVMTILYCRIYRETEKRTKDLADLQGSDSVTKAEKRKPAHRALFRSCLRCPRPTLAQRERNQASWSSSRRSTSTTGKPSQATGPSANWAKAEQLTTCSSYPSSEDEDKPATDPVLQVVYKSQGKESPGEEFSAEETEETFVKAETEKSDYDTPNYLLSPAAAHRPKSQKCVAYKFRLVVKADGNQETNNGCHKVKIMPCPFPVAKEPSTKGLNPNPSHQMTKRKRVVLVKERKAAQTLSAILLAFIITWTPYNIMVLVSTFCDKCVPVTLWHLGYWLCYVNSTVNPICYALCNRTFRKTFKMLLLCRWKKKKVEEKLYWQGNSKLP

Mus musculus [7] = test: Antialzheimer activity in mouse assessed as reversal of scopolamine-induced emotional memory deficits by measuring increase in freezing at 3 mg/kg, ip measured after 24 hrs by contextual fear conditioning assay; type: functional, organism-based
Mus musculus [8] = test: Antialzheimer activity in mouse assessed as unbound brain concentration required for reversal of scopolamine-induced emotional memory deficits by measuring increase in freezing at 3 mg/kg, ip measured after 24 hrs by contextual fear conditioning assay; type: functional, organism-based
[9] = molecular target: T4, Muscarinic acetylcholine receptor M1 (Mus musculus) (UniProt P12657); conditions: CHO
T4 sequence (whole entry): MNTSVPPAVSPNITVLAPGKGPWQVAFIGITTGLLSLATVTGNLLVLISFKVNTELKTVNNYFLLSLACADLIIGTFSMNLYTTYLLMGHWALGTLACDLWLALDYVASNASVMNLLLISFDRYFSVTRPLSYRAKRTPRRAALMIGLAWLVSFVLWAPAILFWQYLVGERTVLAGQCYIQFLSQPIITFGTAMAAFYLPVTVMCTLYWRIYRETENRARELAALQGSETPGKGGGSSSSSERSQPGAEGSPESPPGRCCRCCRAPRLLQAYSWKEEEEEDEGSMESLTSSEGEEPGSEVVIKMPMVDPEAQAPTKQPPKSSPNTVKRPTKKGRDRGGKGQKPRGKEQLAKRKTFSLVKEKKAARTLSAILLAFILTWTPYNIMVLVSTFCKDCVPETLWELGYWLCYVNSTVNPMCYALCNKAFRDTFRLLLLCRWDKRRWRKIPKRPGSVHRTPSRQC
Description: Positive allosteric modulation of mouse muscarinic acetylcholine receptor M1 expressed in CHO cells assessed as increase in acetylcholine-induced calcium mobilization pretreated for 4 mins followed by acetylcholine addition and measured after 4 mins by Fluo-4-AM dye based FLIPR assay

[10] = molecular target: T5, Muscarinic acetylcholine receptor (Canis lupus familiaris) (UniProt A0A8C0MJA7); conditions: CHO
T5 sequence (whole entry): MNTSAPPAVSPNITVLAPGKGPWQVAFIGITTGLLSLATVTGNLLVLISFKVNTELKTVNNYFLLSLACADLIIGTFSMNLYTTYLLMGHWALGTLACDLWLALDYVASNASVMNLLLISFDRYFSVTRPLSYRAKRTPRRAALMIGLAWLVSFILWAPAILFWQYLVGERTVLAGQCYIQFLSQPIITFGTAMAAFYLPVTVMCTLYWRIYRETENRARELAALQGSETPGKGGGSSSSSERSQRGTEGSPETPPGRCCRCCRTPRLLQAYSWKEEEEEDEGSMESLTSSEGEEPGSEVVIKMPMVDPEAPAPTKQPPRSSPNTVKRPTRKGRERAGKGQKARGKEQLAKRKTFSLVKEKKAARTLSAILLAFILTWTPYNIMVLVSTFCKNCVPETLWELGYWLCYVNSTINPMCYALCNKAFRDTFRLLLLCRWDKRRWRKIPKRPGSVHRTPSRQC
Description: Positive allosteric modulation of dog muscarinic acetylcholine receptor M1 expressed in CHO cells assessed as increase in acetylcholine-induced calcium mobilization pretreated for 4 mins followed by acetylcholine addition and measured after 4 mins by Fluo-4-AM dye based FLIPR assay

Cc1ccc(Cc2cc3c(=O)n([C@H]4CCCC[C@@H]4O)cnc3c3ccccc23)cn1
Activity [1]: inactive
Activity [2]: inactive
Activity [3]: inactive
Activity [4]: inactive
Activity [5]: inactive
Activity [6]: inactive
Activity (Mus musculus [7]): Active
Drug uptake(free) (Mus musculus [8]): 24 nM
IP [9]: 6.7 nM
IP [10]: 1.4 nM
